# According to patent publication US20120077744A1, “STEROID-SPARING METHODS OF TREATING BRAIN EDEMA” (Neutron Limited, priority 2007, published 2012):
# Key:
# [1] = system: patients with primary or secondary brain tumors (peritumoral brain edema); assay: Open-label extension study: dexamethasone dose reduction (net cumulative change in dexamethasone dose, NCD); assay type: in vivo, human
# Description: Eligible patients with primary or secondary brain tumors, who had previously participated in one of two randomized, double-blind Phase III trials, were then enrolled in an open-label extension study. […] One of the goals of the open label study was to study the maximum dexamethasone reduction in each patient.
# [2] = system: patients with primary or secondary brain tumors (peritumoral brain edema); assay: Open-label extension study: adverse events and safety
# Description: Eligible patients with primary or secondary brain tumors, who had previously participated in one of two randomized, double-blind Phase III trials, were then enrolled in an open-label extension study. As shown in FIG. 1 patients that participated in the Phase III studies that received XERECEPT (corticorelin acetate) 1 mg twice daily and dexamethasone or placebo and dexamethasone or dexamethasone alone were enrolled in the open label extension study. One of the goals of the open label study was to study the maximum dexamethasone reduction in each patient.
# In the open-labeled extension study, patients returned at 4-week intervals and completed assessments that included adverse events, dexamethasone dose, and steroid side-effects. […] Net cumulative change in dexamethasone dose (NCD) for each patient was determined by the change in dexamethasone dose from baseline for each visit. The net sum of these changes accounted for duration, direction, and amount of dexamethasone dose change.
# [3] = Open-label extension study: serial serum cortisol levels; assay type: in vivo, human; conditions: for AM serum cortisol, one patient: reference range 5-25 μg/dL
# Description: Serial serum cortisol levels were obtained for 16 patients, and were normal or low in 15 (94%) of the 16 patients. In one patient, AM serum cortisol (reference range 5-25 μg/dL) was low on a dexamethasone dose of 2.5 mg/d, moderately elevated (39 μg/dL) after discontinuation of dexamethasone for 4 weeks, then normalized (25 μg/dL) after 16 weeks off dexamethasone, and again low (0.4 μg/dL) after 8 weeks on dexamethasone at 7.0-8.0 mg/d.
# [4] = system: patients with primary or secondary brain tumors (peritumoral brain edema); assay: Open-label extension study: improvement of steroid-related conditions; assay type: in vivo, human
# Description: In these 8 patients, the mean NCD was −9.8 mg/d; the median NCD was −6.5 mg/d (0 to −36 mg/d).
# Mean baseline dexamethasone dose was similar in patients with reduced NCD (6.2 mg) and those with increased NCD (6.3 mg). Improvement or resolution of baseline steroid-related conditions correlated with NCD. Such improvement was observed only in patients whose NCD was reduced or those who took no dexamethasone from baseline to date extraction, as shown in FIG. 3. FIG. 3 is flow chart depicting the net cumulative change in dexamethasone dose and steroid-related adverse events. In contrast, worsening or new onset of steroid-related AEs was confined to patients whose NCD was increased, with one exception—a patient who initiated dexamethasone ≦2 weeks prior to baseline. Improvement was most frequently observed in Cushingoid appearance (5 AEs) myopathy (4 AEs), and insomnia (2 AEs) followed by weight gain, bloating, pedal edema, polyuria, skin striae, and Herpes zoster rash (1 AE each). Median time to initial improvement of steroid-related conditions was 12 weeks (1 to 36 weeks).
# [5] = system: patients with primary or secondary brain tumors (peritumoral brain edema); conditions: interim report (SNO 2006); 20 subjects on corticorelin acetate for at least 4 weeks; cited from earlier work
# [6] = system: patients with primary or secondary brain tumors (peritumoral brain edema); conditions: interim report (SNO 2006); 8 of 18 subjects with such conditions at baseline; cited from earlier work
# RG2 glioma tumor cells = conditions: rats, cited from earlier work
# [7] = system: intracerebral W256 mammary carcinomas; conditions: rats, even at the study's lowest dose of corticorelin acetate; cited from earlier work
# [8] = system: vascular leakage of plasma constituents; conditions: systemic administration; response to injury or inflammatory mediators; cited from earlier work
# [9] = system: patients with peritumoral brain edema; conditions: cited from earlier work
compound,measurement,setting,value
CC[C@H](C)[C@H](NC(=O)[C@@H](NC(=O)[C@H](CCC(=O)O)NC(=O)[C@H](CCSC)NC(=O)[C@H](CC(C)C)NC(=O)[C@H](CCCCN)NC(=O)[C@H](CCCNC(=N)N)NC(=O)[C@H](CC(N)=O)NC(=O)[C@H](CO)NC(=O)[C@H](Cc1c[nH]cn1)NC(=O)[C@H](C)NC(=O)[C@H](CCC(N)=O)NC(=O)[C@H](CCC(N)=O)NC(=O)[C@H](C)NC(=O)[C@H](CC(C)C)NC(=O)[C@H](CCC(N)=O)NC(=O)[C@H](CCC(=O)O)NC(=O)[C@H](C)NC(=O)[C@H](CCCNC(=N)N)NC(=O)[C@H](C)NC(=O)[C@H](CCSC)NC(=O)[C@H](CCC(=O)O)NC(=O)[C@H](CC(C)C)NC(=O)[C@@H](NC(=O)[C@H](CCC(=O)O)NC(=O)[C@H](CCCNC(=N)N)NC(=O)[C@H](CC(C)C)NC(=O)[C@H](CC(C)C)NC(=O)[C@H](Cc1c[nH]cn1)NC(=O)[C@H](Cc1ccccc1)NC(=O)[C@@H](NC(=O)[C@H](CC(C)C)NC(=O)[C@H](CC(=O)O)NC(=O)[C@H](CC(C)C)NC(=O)[C@H](CO)NC(=O)[C@@H](NC(=O)[C@@H]1CCCN1C(=O)[C@@H]1CCCN1C(=O)[C@H](CCC(=O)O)NC(=O)[C@H](CCC(=O)O)NC(=O)[C@@H](N)CO)[C@@H](C)CC)[C@@H](C)O)C(C)C)[C@@H](C)CC)C(N)=O [corticorelin acetate],Typically refractory patients who successfully reduced dexamethasone,[1]; 5 of the 8 patients 55 years of age,62.5%
same,Typically refractory patients who successfully reduced dexamethasone,[1]; 7 of the 10 patients with recurrent brain tumor,70%
same,Patients with increased NCD,[1]; 7 of the 20 patients,35%
same,Mean NCD,[1]; 7 patients whose NCD was increased,+10.7 mg/d
same,Median NCD,"[1]; 7 patients whose NCD was increased, range +2.0 mg/d to +46.0 mg/d",+5.0 mg/d
same,Median maximum percent change from baseline in dexamethasone dose,"[1]; 7 patients with increased NCD, range +50 to +200%",+100%
same,Typically refractory patients who successfully reduced dexamethasone,[1]; 11 of the 16 patients in whom prior dexamethasone reductions had been unsuccessful,69%
same,Patients with reduced NCD,[1]; 11 of the 20 patients,55%
same,Mean NCD,[1]; 11 patients whose NCD was reduced,-10.7 mg/day
same,Median NCD,"[1]; 11 patients whose NCD was reduced, range −0.5 to −36 mg/d",-3.0 mg/day
same,Median maximum percent change from baseline in dexamethasone dose,"[1]; 11 patients with reduced NCD, range −11 to −100%",−87%
same,Patients discontinuing dexamethasone altogether,[1]; of the 11 patients with reduced NCD,5 patients
same,Exposure to dexamethasone and steroid-related side-effects,[1]; patients with peritumoral brain edema,associated with reduced exposure to dexamethasone and improvement in steroid-related side-effects
same,Patients who took 0.0 mg/d dexamethasone from baseline to ≧24 weeks,[1]; two of 20 patients,10%
same,Deaths: relation to study drug,[2]; four patients died between 1-40 days after the last dose,all because of conditions not related to study drug
same,"All adverse events, Mild",[2]; in vivo,3 (15.0) n (%)
same,"All adverse events, Moderate",[2]; in vivo,3 (15.0) n (%)
same,"All adverse events, Severe",[2]; in vivo,1 (5.0) n (%)
same,"All adverse events, all severities (last column, no head)",[2]; in vivo,7 (35.0) n (%)
same,"Eyelid edema, Mild",[2]; in vivo,1 (5.0) n (%)
same,"Eyelid edema, all severities (last column, no head)",[2]; in vivo,1 (5.0) n (%)
same,"Flushing, Mild",[2]; in vivo,3 (15.0) n (%)
same,"Flushing, Moderate",[2]; in vivo,2 (10.0) n (%)
same,"Flushing, all severities (last column, no head)",[2]; in vivo,5 (25.0) n (%)
same,"Headache, Severe",[2]; in vivo,1 (5.0) n (%)
same,"Headache, all severities (last column, no head)",[2]; in vivo,1 (5.0) n (%)
same,"Injection site erythema, Mild",[2]; in vivo,4 (20.0) n (%)
same,"Injection site erythema, Moderate",[2]; in vivo,1 (5.0) n (%)
same,"Injection site erythema, all severities (last column, no head)",[2]; in vivo,5 (25.0) n (%)
same,"Injection site reaction, Mild",[2]; in vivo,2 (10.0) n (%)
same,"Injection site reaction, Moderate",[2]; in vivo,1 (5.0) n (%)
same,"Injection site reaction, all severities (last column, no head)",[2]; in vivo,3 (15.0) n (%)
same,"Nausea, Moderate",[2]; in vivo,1 (5.0) n (%)
same,"Nausea, all severities (last column, no head)",[2]; in vivo,1 (5.0) n (%)
same,Number of SAEs,[2]; in vivo,12 SAEs
same,"Photophobia, Moderate",[2]; in vivo,1 (5.0) n (%)
same,"Photophobia, all severities (last column, no head)",[2]; in vivo,1 (5.0) n (%)
same,SAEs attributed to corticorelin acetate,[2]; in vivo,none of which were attributed to corticorelin acetate
same,Safety and tolerability of long-term treatment,[2]; in vivo,safe and well-tolerated
same,Patients with normal or low serial serum cortisol levels,[3]; 15 of the 16 patients,94%
same,"AM serum cortisol, one patient","[3]; after 8 weeks on dexamethasone at 7.0-8.0 mg/d, low",0.4 µg/dL
same,"AM serum cortisol, one patient","[3]; after 16 weeks off dexamethasone, normalized",25 µg/dL
same,"AM serum cortisol, one patient","[3]; after discontinuation of dexamethasone for 4 weeks, moderately elevated",39 µg/dL
same,Induction of hypercortisolism,[3]; dosing up to 48 weeks,did not induce hypercortisolism
same,Patients with improvement or resolution of steroid-related conditions,"[4]; 8 of the 18 patients with such conditions at baseline, 17 conditions",45%
same,Mean NCD,[4]; 8 patients with improvement or resolution of steroid-related conditions,-9.8 mg/day
same,Median NCD,"[4]; 8 patients with improvement or resolution of steroid-related conditions, range 0 to −36 mg/d",-6.5 mg/day
same,Median time to initial improvement of steroid-related conditions,[4]; range 1 to 36 weeks,12 weeks
same,Improvement observed in Cushingoid appearance,[4]; steroid-related conditions,5 AEs
same,Improvement observed in insomnia,[4]; steroid-related conditions,2 AEs
same,Improvement observed in myopathy,[4]; steroid-related conditions,4 AEs
same,"Improvement observed in weight gain, bloating, pedal edema, polyuria, skin striae, and Herpes zoster rash",[4]; steroid-related conditions,1 AE each
same,Subjects who reduced their dexamethasone dosage during the study,[5],11 subjects
same,Subjects who took no concomitant dexamethasone,[5],2 subjects
same,Subjects with improvement or resolution of steroid related conditions,[6],45%
same,Survival versus dexamethasone alone,RG2 glioma tumor cells; administered chronically,significantly prolonged survival
same,Effect on tumoral and peritumoral edema,RG2 glioma tumor cells; intravenous infusion,reduce tumoral and peritumoral edema
same,Effect on the anti-edematous effect of dexamethasone,[7],enhance substantially the anti-edematous effect of dexamethasone
same,Effect on vascular leakage and tissue swelling,[8],inhibit vascular leakage of plasma constituents and associated tissue swelling
same,Side-effects of intravenous administration,"[9]; human, in vivo, iv","some side-effects including headache, hypotension, facial flushing, diarrhea, shortness of breath, nausea and lethargy"
same,Tolerability in humans,"[9]; human, in vivo, iv",well-tolerated
same,Neurological symptoms or physical findings,[9]; intravenous bolus and continuous infusions,showed improvement in neurological symptoms or physical findings
